Values after ≈ are worked out from the molar mass of the structure shown. Positions of bridges follow the written chain, without caps; N, C: chain ends. Non-standard residues stand in square brackets, D forms with d. Residues, ends and D or L forms follow the SMILES beside them. *: point of attachment. Decanoyl = CCCCCCCCCC(=O)*; Octanoyl = CCCCCCCC(=O)*; Orn = NCCC[C@H](N)C(=O)O; Dab = NCC[C@H](N)C(=O)O; Dap = NC[C@H](N)C(=O)O
Assays:
[1] = system: Enterobacter cloacae
Procedure: (§1) MICs of the lipopeptides (trifluoroacetic acid salt, TFA) were determined by broth microdilution in cation-adjusted Mueller-Hinton broth (CAMHB) (Oxoid Australia, Thebarton, SA, Australia) according to Clinical and Laboratory Standards Institute standards (Clinical and Laboratory Standards Institute. Performance standards for antimicrobial susceptibility testing; eighteenth informational supplement M100-S18. Wayne, Pa., 2008). Polymyxin B (sulphate) was employed as control. […]

[2] = system: Acinetobacter baumannii
Procedure: as §1

[3] = system: Pseudomonas aeruginosa
Procedure: as §1

Compound	Minimum inhibitory concentration, Ec FADDI-EC001 [1] [µg/mL]	Minimum inhibitory concentration, Ec FADDI-EC003 [1] [µg/mL]	Minimum inhibitory concentration, Ec FADDI-EC006 [1] [µg/mL]	Minimum inhibitory concentration, Ab A ATCC 17978 [2] [µg/mL]	Minimum inhibitory concentration, Ab ATCC 19606 [2] [µg/mL]	Minimum inhibitory concentration, Ab FADDI-AB034 [2] [µg/mL]	Minimum inhibitory concentration, Pa ATCC 27853 [3] [µg/mL]	Minimum inhibitory concentration, Pa FADDI-PA022 [3] [µg/mL]	Minimum inhibitory concentration, Pa FADDI-PA025 [3] [µg/mL]
CCCCCCCC(=O)N[C@@H](CCCN)C(=O)N[C@H](C(=O)N[C@@H](CCN)C(=O)N[C@H]1CCNC(=O)[C@H]([C@@H](C)O)NC(=O)[C@H](CCN)NC(=O)[C@H](CCN)NC(=O)[C@H]([C@@H](C)O)NC(=O)[C@@H](CC(C)C)NC(=O)[C@H](CCN)NC1=O)[C@@H](C)O [Compound 32] (Octanoyl-[Orn]T[Dab][Dab][Dab][dL]T[Dab][Dab]T; lactam 4-C)	1 (≈ 0.864 µM)	1 (≈ 0.864 µM)	>32	>32	>32	>32	>32	1 (≈ 0.864 µM)	>32
CCCCCCCC(=O)N[C@@H](CCN)C(=O)N[C@H](C(=O)N[C@@H](CCCN)C(=O)N[C@H]1CCNC(=O)[C@H]([C@@H](C)O)NC(=O)[C@H](CCN)NC(=O)[C@H](CCN)NC(=O)[C@H]([C@@H](C)O)NC(=O)[C@@H](CC(C)C)NC(=O)[C@H](CCN)NC1=O)[C@@H](C)O [Compound 34] (Octanoyl-[Dab]T[Orn][Dab][Dab][dL]T[Dab][Dab]T; lactam 4-C)	<0.125	<0.125	4 (≈ 3.46 µM)	2 (≈ 1.73 µM)	2 (≈ 1.73 µM)	2 (≈ 1.73 µM)	1 (≈ 0.864 µM)	0.5 (≈ 0.432 µM)	>32
CCCCCCCC(=O)N[C@@H](CCN)C(=O)N[C@H](C(=O)N[C@@H](CN)C(=O)N[C@H]1CCNC(=O)[C@H]([C@@H](C)O)NC(=O)[C@H](CCN)NC(=O)[C@H](CCN)NC(=O)[C@H](C(C)C)NC(=O)[C@@H](CC(C)C)NC(=O)[C@H](CCN)NC1=O)[C@@H](C)O [Compound 36] (Octanoyl-[Dab]T[Dap][Dab][Dab][dL]V[Dab][Dab]T; lactam 4-C)	0.25 (≈ 0.222 µM)	<0.125	0.25 (≈ 0.222 µM)	0.5 (≈ 0.443 µM)	0.25 (≈ 0.222 µM)	0.5 (≈ 0.443 µM)	1 (≈ 0.887 µM)	1 (≈ 0.887 µM)	4 (≈ 3.55 µM)
CCCCCCCCCC(=O)N[C@@H](CCN)C(=O)N[C@H](C(=O)N[C@@H](CN)C(=O)N[C@H]1CCNC(=O)[C@H]([C@@H](C)O)NC(=O)[C@H](CCN)NC(=O)[C@H](CCN)NC(=O)[C@H]([C@@H](C)O)NC(=O)[C@@H](CC(C)C)NC(=O)[C@H](CCN)NC1=O)[C@@H](C)O [Compound 37] (Decanoyl-[Dab]T[Dap][Dab][Dab][dL]T[Dab][Dab]T; lactam 4-C)	0.5 (≈ 0.432 µM)	4 (≈ 3.46 µM)	0.5 (≈ 0.432 µM)	0.5 (≈ 0.432 µM)	0.25 (≈ 0.216 µM)	0.25 (≈ 0.216 µM)	1 (≈ 0.864 µM)	0.5 (≈ 0.432 µM)	2 (≈ 1.73 µM)
CCCCCCCCCC(=O)N[C@@H](CCN)C(=O)N[C@H](C(=O)N[C@@H](CN)C(=O)N[C@H]1CCNC(=O)[C@H]([C@@H](C)O)NC(=O)[C@H](CCN)NC(=O)[C@H](CCN)NC(=O)[C@H](C)NC(=O)[C@@H](CC(C)C)NC(=O)[C@H](CCN)NC1=O)[C@@H](C)O [Compound 38] (Decanoyl-[Dab]T[Dap][Dab][Dab][dL]A[Dab][Dab]T; lactam 4-C)	0.5 (≈ 0.443 µM)	0.5 (≈ 0.443 µM)	1 (≈ 0.887 µM)	0.5 (≈ 0.443 µM)	0.5 (≈ 0.443 µM)	1 (≈ 0.887 µM)	1 (≈ 0.887 µM)	2 (≈ 1.77 µM)	2 (≈ 1.77 µM)

Reference: patent USRE48335E1, “Polymyxin derivatives as antimicrobial compounds” (priority 2014, dated 2020)
